In ChEMBL document CHEMBL1938390, “Pyrazolopyridine inhibitors of B-Raf(V600E). Part 3: an increase in aqueous solubility via the disruption of crystal packing” (Bioorg Med Chem Lett, 2012):
≈ marks a conversion by molar mass, not a printed value.

Assays:
[1] = molecular target: T1, Serine/threonine-protein kinase B-raf (Homo sapiens, UniProt P15056, V600E); assay: Inhibition of full-length B-Raf V600E mutant
[2] = Solubility of the compound at pH 7.4; assay type: physicochemical; conditions: buffer
[3] = Solubility of the compound at pH 6.5; assay type: physicochemical; conditions: buffer
[4] = molecular target: T1, Serine/threonine-protein kinase B-raf; assay: Inhibition of B-Raf V600E mutant-mediated Erk phosphorylation in human MALME-3M cells; assay type: cell-based

T1 sequence (P15056 2-766 V600E limits assumed): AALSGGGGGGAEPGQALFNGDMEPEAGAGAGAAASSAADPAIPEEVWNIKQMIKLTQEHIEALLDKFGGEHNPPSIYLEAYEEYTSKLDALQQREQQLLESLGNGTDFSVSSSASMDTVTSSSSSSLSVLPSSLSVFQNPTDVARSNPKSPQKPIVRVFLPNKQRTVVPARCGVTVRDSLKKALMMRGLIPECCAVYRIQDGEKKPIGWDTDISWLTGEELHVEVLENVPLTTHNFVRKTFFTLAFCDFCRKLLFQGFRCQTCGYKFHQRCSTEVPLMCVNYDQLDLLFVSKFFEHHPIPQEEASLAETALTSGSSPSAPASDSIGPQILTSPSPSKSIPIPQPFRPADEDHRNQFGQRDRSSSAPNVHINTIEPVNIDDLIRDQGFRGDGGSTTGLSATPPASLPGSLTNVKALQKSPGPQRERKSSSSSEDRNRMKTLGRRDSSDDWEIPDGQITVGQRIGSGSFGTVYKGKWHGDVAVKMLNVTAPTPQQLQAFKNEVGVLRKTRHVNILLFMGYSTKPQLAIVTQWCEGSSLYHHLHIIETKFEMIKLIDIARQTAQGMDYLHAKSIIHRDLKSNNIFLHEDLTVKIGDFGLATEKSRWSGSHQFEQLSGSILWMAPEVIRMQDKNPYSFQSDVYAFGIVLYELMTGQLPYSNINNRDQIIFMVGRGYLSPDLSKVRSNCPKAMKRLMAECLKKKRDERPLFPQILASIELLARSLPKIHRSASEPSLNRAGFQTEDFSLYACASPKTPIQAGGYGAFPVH

SMILES | IC50 [1] [nM] | solubility [2] [µg/mL] | solubility [3] [µg/mL] | IC50 [4] [nM]
CCCS(=O)(=O)Nc1ccc(F)c(C(=O)Nc2cnc3[nH]nc(C(C)C)c3c2)c1F | 14 |  | 6 (≈ 13.7 µM) | 89
CCCS(=O)(=O)Nc1ccc(Cl)c(C(=O)Nc2cnc3[nH]nc(OC)c3c2)c1F |  | 2 (≈ 4.53 µM) | < 1 | 
CCCS(=O)(=O)Nc1ccc(F)c(C(=O)Nc2cnc3[nH]nc(OC)c3c2)c1F |  | 9 (≈ 21.2 µM) | 4 (≈ 9.4 µM) | 

Results, then the compound that gave them:

IC50 [1] [nM] | solubility [2] [µg/mL] | solubility [3] [µg/mL] | IC50 [4] [nM] | SMILES
2 | < 1 | 1 (≈ 2.15 µM) | 18 | CC(C)CS(=O)(=O)Nc1ccc(F)c(C(=O)Nc2cnc3[nH]nc(C4CC4)c3c2)c1Cl
3.8 | 127 (≈ 281 µM) | 54 (≈ 119 µM) | 33 | CCCS(=O)(=O)Nc1ccc(F)c(C(=O)Nc2cnc3[nH]nc(C4CC4)c3c2)c1Cl
2.2 | 2 (≈ 4.53 µM) | < 1 | 19 | CCCS(=O)(=O)Nc1ccc(F)c(C(=O)Nc2cnc3[nH]nc(OC)c3c2)c1Cl
2.7 | 4 (≈ 9.19 µM) | 1 (≈ 2.3 µM) | 23 | CCCS(=O)(=O)Nc1ccc(F)c(C(=O)Nc2cnc3[nH]nc(C4CC4)c3c2)c1F
0.6 | 265 (≈ 564 µM) | 130 (≈ 277 µM) | 51 | O=C(Nc1cnc2[nH]nc(C3CC3)c2c1)c1c(F)ccc(NS(=O)(=O)CCCF)c1Cl
